# Assay results as given in PubChem BioAssay (NCI).
#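 Values below derive from 48-hour exposures of cells grown in 96-well plates, with endpoints linearly interpolated between the two concentrations bracketing the appropriate inhibition level. GI50 marks 50% less growth. The concentration for full growth arrest is given as TGI.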
# Experiments:
# Test in all cases: NCI anticancer screen, dose series, 48 h
# [1] = tested on: NCI-H23 lung
# [2] = tested on: COLO 205 colon
# [3] = tested on: M14 melanoma
# [4] = tested on: SR leukemia
# [5] = tested on: CCRF-CEM leukemia
# [6] = tested on: PC-3 prostate
# [7] = tested on: OVCAR-5 ovarian
# [8] = tested on: A549 NSCLC
# [9] = tested on: MDA-MB-231 breast
# [10] = tested on: SNB-75 CNS
# [11] = tested on: K-562 leukemia
# [12] = tested on: HT29 colon
# [13] = tested on: SNB-19 CNS
# [14] = tested on: NCI/ADR-RES ovarian
# [15] = tested on: RXF 393 renal
# [16] = tested on: HCT-116 colon
SMILES,TGI [1],TGI [2],TGI [3],TGI [4],TGI [5],TGI [6],TGI [7],TGI [8],TGI [9],TGI [10],TGI [11],TGI [12],TGI [13],TGI [14],TGI [15],TGI [16],GI50 [11]
Cc1ccc(/C=C/C(=N/NC(=O)N/N=C(/C=C/c2ccc(C)cc2)C(C)(C)CN2CCCCC2)C(C)(C)CN2CCCCC2)cc1,4.82 µM,3.07 µM,1.8 µM,0.359 µM,3.08 µM,3.52 µM,4.98 µM,3.02 µM,3.22 µM,3.08 µM,1.68 µM,2.16 µM,4.4 µM,3.08 µM,2.68 µM,2.64 µM,
O=C(O)c1ccccc1/C=N/NC1=NCCCCN1,> 100 µM,> 100 µM,> 100 µM,> 100 µM,> 100 µM,> 100 µM,> 100 µM,> 100 µM,> 100 µM,> 100 µM,> 100 µM,> 100 µM,> 100 µM,> 100 µM,> 100 µM,> 100 µM,
CN1CCC23c4c5ccc(O)c4OC2c2[nH]c4ccccc4c2CC3(O)C1C5 (stereo not drawn),> 100 µM,33.1 µM,34.8 µM,> 100 µM,46.9 µM,> 100 µM,> 100 µM,> 100 µM,86.5 µM,> 100 µM,44.4 µM,> 100 µM,> 100 µM,> 100 µM,66.1 µM,> 100 µM,
C=CC[C@@]1(C)CCCCCCCCC[C@@](C)(CC=C)C1=O,63.9 µM,42.3 µM,> 100 µM,63.7 µM,42.8 µM,> 100 µM,> 100 µM,> 100 µM,80.9 µM,92.4 µM,74.5 µM,38.2 µM,45 µM,> 100 µM,32.6 µM,> 100 µM,
CCc1c(Cc2cc(C)cc(C)c2)n2c(nc1=O)SCC2CBr (stereo not drawn),> 50 µM,> 50 µM,> 50 µM,> 50 µM,> 50 µM,> 50 µM,> 50 µM,> 50 µM,> 50 µM,> 50 µM,> 50 µM,> 50 µM,> 50 µM,> 50 µM,> 50 µM,> 50 µM,
CCOC(=O)/C=C(/C(=O)OCC)n1ccc(=O)n(/C(=C/C(=O)OCC)C(=O)OCC)c1=O,42.7 µM,3.79 µM,10.6 µM,13.5 µM,3.53 µM,29 µM,31.2 µM,32.7 µM,31.9 µM,32.6 µM,10.3 µM,26.8 µM,38.3 µM,55.3 µM,9.62 µM,6.88 µM,
O=C=NCCCCCCN1C(=O)N2C(c3ccccc3)N(CCCCCCN=C=O)C(=O)N2C1c1ccccc1 (stereo not drawn),> 100 µM,> 100 µM,> 100 µM,> 100 µM,> 100 µM,> 100 µM,> 100 µM,> 100 µM,> 100 µM,> 100 µM,> 100 µM,> 100 µM,> 100 µM,> 100 µM,> 100 µM,> 100 µM,
NC(=Nc1ccc(O)cc1)S(=O)O,> 100 µM,> 100 µM,> 100 µM,> 100 µM,> 100 µM,> 100 µM,> 100 µM,> 100 µM,> 100 µM,> 100 µM,> 100 µM,> 100 µM,> 100 µM,> 100 µM,> 100 µM,> 100 µM,
C=CCNC1=C2C[C@@H](C)C[C@@H](OC)[C@H](OC(=O)CN)[C@H](C)/C=C(\C)[C@@H](OC(N)=O)[C@H](OC)/C=C\C=C(/C)C(=O)NC(=CC1=O)C2=O,21.3 µM,5.23 µM,22.3 µM,> 40 µM,> 29.8 µM,11.9 µM,25 µM,21 µM,15.6 µM,9.59 µM,> 47.4 µM,17.6 µM,25.5 µM,> 100 µM,17 µM,14.4 µM,
CC1OC(OC2C(O)COC(OC3C(C)OC(OC4C(OC(=O)[C@]56CCC(C)(C)C[C@@H]5C5=CCC7[C@@]8(C)C[C@H](O)[C@H](OC9OC(CO)C(O)C(OC%10OC(CO)C(O)C(O)C%10O)C9O)[C@@](C)(CO)[C@@H]8CC[C@@]7(C)[C@]5(C)CC6)OCC(O)C4O)C(O)C3O)C2O)C(O)C(O)C1O (stereo partly drawn),31 µM,18.1 µM,26.3 µM,25.8 µM,32.6 µM,23.9 µM,27 µM,28.6 µM,31.2 µM,35 µM,> 100 µM,31.5 µM,30.4 µM,31.9 µM,27.9 µM,32.7 µM,
COc1cc2cc(C(=O)N3CC(CCl)c4ccccc43)[nH]c2c(OC)c1OC (stereo not drawn),> 100 µM,> 100 µM,> 100 µM,> 100 µM,> 100 µM,> 100 µM,> 100 µM,> 100 µM,> 100 µM,> 100 µM,> 41.3 µM,> 57.9 µM,> 100 µM,> 100 µM,> 100 µM,> 100 µM,
COc1ccc(/C=C2\N=C(NN)N=C2Cl)cc1,> 100 µM,> 100 µM,> 100 µM,> 100 µM,> 100 µM,> 100 µM,> 100 µM,> 100 µM,> 100 µM,> 100 µM,> 100 µM,> 100 µM,> 100 µM,> 100 µM,> 100 µM,> 100 µM,
COc1cc2c(cc1OC)C(N)CC2=O (stereo not drawn),> 100 µM,> 100 µM,> 100 µM,> 100 µM,> 100 µM,> 100 µM,> 100 µM,> 100 µM,> 100 µM,> 100 µM,> 100 µM,> 100 µM,> 100 µM,> 100 µM,> 100 µM,> 100 µM,
C=CC(C)CCC(C/C=C(\C)CCC=C(C)C)C(=C)CCCC(C)C (stereo not drawn),> 100 µM,> 100 µM,> 100 µM,> 100 µM,> 100 µM,> 100 µM,> 100 µM,> 100 µM,> 100 µM,> 100 µM,> 100 µM,> 100 µM,> 100 µM,> 100 µM,> 100 µM,> 100 µM,
O=C1NC(N2CCCC(CO)C2)=N/C1=C\c1ccc(Cl)cc1 (stereo not drawn),> 100 µM,> 100 µM,> 100 µM,> 100 µM,> 100 µM,> 100 µM,> 100 µM,> 100 µM,> 100 µM,> 100 µM,> 100 µM,> 100 µM,> 100 µM,> 100 µM,> 100 µM,> 100 µM,
COc1cc(/C=C/c2cc(/C=C/c3ccc(O)c(OC)c3)oc(=O)c2)ccc1O,> 24.7 µM,> 73.2 µM,> 100 µM,> 31.2 µM,> 26.1 µM,20.3 µM,> 100 µM,> 100 µM,> 96.2 µM,4.61 µM,> 28 µM,> 22.6 µM,> 100 µM,26.1 µM,1.08 µM,> 65.8 µM,
S=c1sc2nc(Cl)nc(Cl)c2s1,39.3 µM,20.4 µM,16.9 µM,21.2 µM,> 46.6 µM,27.9 µM,29.5 µM,42.4 µM,24.7 µM,34.8 µM,28.1 µM,23.5 µM,34.8 µM,38.2 µM,26 µM,26 µM,
N#CCCN(CCN(C(=O)Nc1ccccc1)c1ccccc1)C(=O)Nc1ccccc1,> 100 µM,> 100 µM,> 100 µM,> 100 µM,47.7 µM,> 100 µM,> 100 µM,> 100 µM,> 100 µM,> 100 µM,> 92.1 µM,> 100 µM,> 100 µM,> 100 µM,> 90.1 µM,> 100 µM,
CC(=O)OC1CC[C@]2(C)C3CC[C@@]4(C)C(CCC4[C@H](C)CCCC(C)C)[C@@H]3CCC2(Br)C1 (stereo partly drawn),36.5 µM,20.9 µM,> 50 µM,24.8 µM,27.3 µM,37.7 µM,> 50 µM,> 50 µM,38 µM,> 50 µM,35.2 µM,> 50 µM,> 50 µM,> 50 µM,21.9 µM,16.5 µM,
C[C@]12[C@@H]3CC[C@H]1[C@@H](OC(=O)Nc1cc([N+](=O)[O-])cc([N+](=O)[O-])c1)C(=O)N2CC3,> 100 µM,> 100 µM,> 100 µM,> 100 µM,> 100 µM,> 100 µM,> 100 µM,> 100 µM,> 100 µM,> 100 µM,> 100 µM,> 100 µM,> 100 µM,> 100 µM,> 100 µM,> 100 µM,
O=C(c1ccccc1)c1sc2c(=O)c(C(=O)c3ccccc3)c(C(=O)c3ccccc3)sc2c(=O)c1C(=O)c1ccccc1,> 100 µM,> 100 µM,> 100 µM,> 100 µM,> 100 µM,> 100 µM,> 100 µM,> 100 µM,> 100 µM,68 µM,> 100 µM,> 100 µM,> 100 µM,74.9 µM,72.3 µM,> 100 µM,
COc1cccc(C2C3=C(COC3=O)Oc3cc4c(cc32)OCO4)c1 (stereo not drawn),24.9 µM,0.631 µM,> 100 µM,> 100 µM,7.74 µM,> 100 µM,> 90 µM,> 100 µM,> 43.3 µM,> 100 µM,6.11 µM,1.3 µM,> 100 µM,> 6.6 µM,> 100 µM,> 31.6 µM,
NC(N)=NCCCC(NC(=O)OCCCCCCn1ccc(N)nc1=O)C(=O)O (stereo not drawn),> 100 µM,> 100 µM,> 100 µM,> 100 µM,> 100 µM,> 100 µM,> 100 µM,> 100 µM,> 100 µM,> 100 µM,> 100 µM,> 100 µM,> 100 µM,> 100 µM,> 100 µM,> 100 µM,
C=C1CN(Cc2ccccc2)[C@@H]2CCCCC[C@H](C#N)[C@H]12,> 100 µM,> 100 µM,> 100 µM,> 100 µM,> 100 µM,> 100 µM,> 100 µM,> 100 µM,> 100 µM,> 100 µM,> 100 µM,> 100 µM,> 100 µM,> 100 µM,> 100 µM,> 100 µM,
C=C1C(=O)O[C@H]2[C@H]1CC(=O)/C(C)=C/CC[C@@]1(C)O[C@@H]21,4.03 µM,0.708 µM,1.57 µM,7.74 µM,0.394 µM,6.1 µM,6.87 µM,27.9 µM,3.5 µM,31.6 µM,1.68 µM,4.53 µM,13.8 µM,10.8 µM,1.08 µM,2.51 µM,0.368 µM
COc1cc2c(cc1OCc1ccccc1)NC(=S)[C@@H]1CCCN1C2=S,> 100 µM,> 100 µM,> 100 µM,> 100 µM,> 100 µM,> 100 µM,> 100 µM,> 100 µM,> 100 µM,90.3 µM,> 100 µM,> 100 µM,> 100 µM,> 100 µM,> 100 µM,> 100 µM,
O=c1[nH]n(Cc2ccccn2)c2ccc([N+](=O)[O-])cc12,> 100 µM,> 100 µM,> 100 µM,> 100 µM,> 100 µM,> 100 µM,> 100 µM,> 100 µM,> 100 µM,> 100 µM,> 100 µM,> 100 µM,> 100 µM,> 100 µM,> 100 µM,> 100 µM,
